In ChEMBL document CHEMBL5352461, “Discovery of the novel Benzo[b]thiophene 1,1-dioxide derivatives as a potent STAT3 inhibitor against idiopathic pulmonary fibrosis” (Eur J Med Chem, 2023):
pIC50: −log10 of the molar value. Calls of active or inactive are those of the source. The calls are words filed in the database; no cut-off is given here.

How the values were obtained:
Mus musculus [1] = assay: Antifibrotic activity against bleomycin-induced C57BL/6 mouse lung fibrosis model assessed as prevention of belomycin-induced collagen-1 expression in lung at 60 mg/kg, ip by immunohistochemical staining based analysis; assay type: functional, organism-based
A549 [2] = assay: Antiproliferative activity against TGFbeta-induced human A549 cells assessed as reduction in cell viability at 200 nM incubated for 72 hrs by CCK-8 assay; assay type: functional
NIH3T3 [3] = assay: Antifibrotic activity in TGF-beta1-induced mouse NIH3T3 cells assessed as inhibition of alpha-SMA expression at 50 nM incubated for 24 hrs by Western blot analysis; assay type: functional, cell-based
[4] = Toxicity in C57BL/6 mouse assessed as heart lesion at 60 mg/kg, ip by H and E staining based analysis; assay type: organism-based; settings: in vivo
NIH3T3 [5] = assay: Antifibrotic activity in TGF-beta1-induced mouse NIH3T3 cells assessed as inhibition of STAT3 phosphorylation at 50 nM incubated for 24 hrs by Western blot analysis; assay type: functional, cell-based
Mus musculus [6] = assay: Antifibrotic activity against bleomycin-induced C57BL/6 mouse lung fibrosis model assessed as inhibition of hydroxyproline content in lung at 60 mg/kg, ip administered for 7 to 14 days; assay type: functional, organism-based; settings: time 7-14 day
A549 [7] = assay: Antiproliferative activity against TGFbeta-induced human A549 cells assessed as reduction in cell viability incubated for 72 hrs by CCK-8 assay; assay type: functional, cell-based; settings: dose 25-400 nM
Mus musculus [8] = species: Mus musculus; assay: Antifibrotic activity against bleomycin-induced C57BL/6 mouse lung fibrosis model assessed as reduction in CD4-CD69+ T cell in lung at high dose incubated for 30 mins by flow cytometry analysis ( Rvb = 6.54%); assay type: functional; set-up: scale not given: the % may be the effect or the level left; settings: 0.5 h
Mus musculus [9] = assay: Antifibrotic activity against bleomycin-induced C57BL/6 mouse lung fibrosis model assessed as inhibition of hydroxyproline content in lung at 60 mg/kg, ip; assay type: functional, organism-based
A549 [10] = assay: Inhibition of epithelial-mesenchymal transition in human A549 cells assessed as effect on E-cadherin by measuring fluorescence intensity measured for 24 hrs by immunofluorescence assays; assay type: functional, cell-based
A549 [11] = assay: Inhibition of epithelial-mesenchymal transition in human A549 cells assessed as effect on alpha-SMA by measuring fluorescence intensity measured for 24 hrs by immunofluorescence assays; assay type: functional, cell-based
Mus musculus [12] = assay: Antifibrotic activity against bleomycin-induced C57BL/6 mouse lung fibrosis model assessed as reduction in STAT3 phosphorylation at Ty705 residue in lung at 60 mg/kg, ip by immunohistochemical staining based analysis; assay type: functional, organism-based
Mus musculus [13] = assay: Antifibrotic activity against bleomycin-induced pulmonary fibrosis C57BL/6 mouse model assessed as increase in inter-alveolar space at 60 mg/kg, ip administered for 20 days and measured on 21 day; assay type: functional, organism-based
Mus musculus [14] = species: Mus musculus; assay: Antifibrotic activity against bleomycin-induced C57BL/6 mouse lung fibrosis model assessed as reduction in F4/80+CD11b+ macrophage in lung at low dose incubated for 30 mins by flow cytometry analysis ( Rvb = 17.96%); assay type: functional; set-up: scale not given: the % may be the effect or the level left; settings: 0.5 h
Mus musculus [15] = species: Mus musculus; assay: Antifibrotic activity against bleomycin-induced C57BL/6 mouse lung fibrosis model assessed as reduction in F4/80+CD11b+ macrophage in lung at high dose incubated for 30 mins by flow cytometry analysis ( Rvb = 17.96%); assay type: functional; set-up: scale not given: the % may be the effect or the level left; settings: 0.5 h
Mus musculus [16] = species: Mus musculus; assay: Antifibrotic activity against bleomycin-induced C57BL/6 mouse lung fibrosis model assessed as reduction in CD11c+MHC II+ in dendritic cells incubated for 30 mins by flow cytometry analysis; assay type: functional, organism-based
NIH3T3 [17] = assay: Antiproliferative activity against mouse NIH3T3 cells assessed as cell growth inhibition incubated for 24 to 72 hrs by CCK-8 assay; assay type: functional, cell-based
A549 [18] = assay: Induction of morphological changes in TGF-beta1 induced human A549 cells assessed as appearance of spindle shape cells at 200 nM measured for 24 hrs by phase contrast microscopy analysis; assay type: functional, cell-based
[19] = Toxicity in C57BL/6 mouse assessed as spleen lesion at 60 mg/kg, ip by H and E staining based analysis; assay type: organism-based; settings: in vivo
NIH3T3 [20] = assay: Inhibition of colony formation in mouse NIH3T3 cells assessed as inhibition of cell proliferation incubated for 2 weeks by crystal violet staining based microscopic analysis; assay type: functional; settings: dose <= 100.0 nM
NIH3T3 [21] = assay: Antifibrotic activity in TGF-beta1-induced mouse NIH3T3 cells assessed as inhibition of collagen-1 expression at 50 nM incubated for 24 hrs by Western blot analysis; assay type: functional, cell-based
Mus musculus [22] = species: Mus musculus; assay: Antifibrotic activity against bleomycin-induced C57BL/6 mouse lung fibrosis model assessed as reduction in CD4-CD69+ T cell incubated for 30 mins by flow cytometry analysis; assay type: functional, organism-based
NIH3T3 [23] = assay: Antiproliferative activity against mouse NIH3T3 cells assessed as cell growth inhibition incubated for 72 hrs by CCK-8 assay; assay type: functional, cell-based; settings: dose 6.25-100 nM
Mus musculus [24] = species: Mus musculus; assay: Antifibrotic activity against bleomycin-induced C57BL/6 mouse lung fibrosis model assessed as reduction in F4/80+CD11b+ macrophage incubated for 30 mins by flow cytometry analysis; assay type: functional, organism-based
[25] = Toxicity in C57BL/6 mouse assessed as liver lesion at 60 mg/kg, ip by H and E staining based analysis; assay type: organism-based; settings: in vivo
Mus musculus [26] = species: Mus musculus; assay: Antifibrotic activity against bleomycin-induced C57BL/6 mouse lung fibrosis model assessed as reduction in CD4-CD69+ T cell in lung at low dose incubated for 30 mins by flow cytometry analysis ( Rvb = 6.54%); assay type: functional; set-up: scale not given: the % may be the effect or the level left; settings: 0.5 h
Mus musculus [27] = assay: Antifibrotic activity against bleomycin-induced pulmonary fibrosis C57BL/6 mouse model assessed as reduction in alveolar septa thickness at 60 mg/kg, ip administered for 20 days and measured on 21 day; assay type: functional, organism-based
[28] = Toxicity in C57BL/6 mouse assessed as kidney lesion at 60 mg/kg, ip by H and E staining based analysis; assay type: organism-based; settings: in vivo
A549 [29] = assay: Inhibition of epithelial-mesenchymal transition in TGF-beta1-induced human A549 cells assessed as effect on alpha-SMA by measuring fluorescence intensity at 200 nM incubated for 24 hrs by immunofluorescence assays; assay type: functional, cell-based
NIH3T3 [30] = assay: Antiproliferative activity against TGFbeta-induced mouse NIH3T3 cells assessed as cell viability at 6.25 to 100 nM incubated for 24 to 72 hrs by CCK-8 assay; assay type: functional, cell-based; settings: dose 6.25-100 nM, time 24-72 hrs
[31] = biological target: Signal transducer and activator of transcription 3 (Mus musculus) (UniProt P42227); assay: Binding affinity to STAT3 in mouse NIH3T3 cells assessed as reduction in protein degradation; assay type: cell-based
A549 [32] = assay: Inhibition of epithelial-mesenchymal transition in TGF-beta1-induced human A549 cells assessed as effect on E-cadherin by measuring fluorescence intensity at 200 nM incubated for 24 hrs by immunofluorescence assays; assay type: functional, cell-based
Mus musculus [33] = assay: Antifibrotic activity against bleomycin-induced C57BL/6 mouse lung fibrosis model assessed as prevention of belomycin-induced alpha-SMA expression in lung at 60 mg/kg, ip by immunohistochemical staining based analysis; assay type: functional, organism-based
A549 [34] = assay: Inhibition of cell migration in TGF-beta1 induced human A549 cells measured for 24 hrs by contrast-phase microscopic analysis; assay type: functional, cell-based
Mus musculus [35] = species: Mus musculus; assay: Antifibrotic activity against bleomycin-induced C57BL/6 mouse lung fibrosis model assessed as reduction in CD11c+MHC II+ in dendritic cells in lung at high dose incubated for 30 mins by flow cytometry analysis ( Rvb = 23.67 %); assay type: functional; set-up: scale not given: the % may be the effect or the level left; settings: 0.5 h
[36] = biological target: Signal transducer and activator of transcription 3 (Homo sapiens) (UniProt P40763); assay: Binding affinity to STAT3 in human A549 cells assessed as reduction in protein degradation; assay type: cell-based
Mus musculus [37] = species: Mus musculus; assay: Antifibrotic activity against bleomycin-induced C57BL/6 mouse lung fibrosis model assessed as reduction in CD11c+MHC II+ in dendritic cells in lung at low dose incubated for 30 mins by flow cytometry analysis ( Rvb = 23.67 %); assay type: functional; set-up: scale not given: the % may be the effect or the level left; settings: 0.5 h

Signal transducer and activator of transcription 3 (Homo sapiens), sequence (P40763 whole entry): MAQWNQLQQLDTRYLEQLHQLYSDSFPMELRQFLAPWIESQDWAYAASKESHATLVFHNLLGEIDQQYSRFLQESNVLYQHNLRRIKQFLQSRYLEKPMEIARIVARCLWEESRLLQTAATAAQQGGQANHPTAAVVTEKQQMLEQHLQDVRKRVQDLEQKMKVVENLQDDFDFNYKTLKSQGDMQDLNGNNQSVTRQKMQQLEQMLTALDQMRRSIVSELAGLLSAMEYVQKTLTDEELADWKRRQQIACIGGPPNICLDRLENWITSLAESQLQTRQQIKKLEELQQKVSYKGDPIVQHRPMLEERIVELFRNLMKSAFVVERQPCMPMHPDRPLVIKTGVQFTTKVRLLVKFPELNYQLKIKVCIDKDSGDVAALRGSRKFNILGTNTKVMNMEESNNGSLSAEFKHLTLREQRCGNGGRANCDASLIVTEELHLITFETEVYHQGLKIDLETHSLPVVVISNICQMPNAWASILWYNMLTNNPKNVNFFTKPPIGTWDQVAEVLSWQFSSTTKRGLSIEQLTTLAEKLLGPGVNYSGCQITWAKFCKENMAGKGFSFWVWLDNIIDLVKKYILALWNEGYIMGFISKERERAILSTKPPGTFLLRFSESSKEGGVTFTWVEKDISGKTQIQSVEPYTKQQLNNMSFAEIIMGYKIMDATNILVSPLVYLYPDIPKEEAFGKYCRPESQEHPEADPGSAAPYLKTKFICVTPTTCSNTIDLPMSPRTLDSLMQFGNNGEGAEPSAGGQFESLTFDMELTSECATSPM
Signal transducer and activator of transcription 3 (Mus musculus), sequence (P42227 whole entry): as the sequence (P40763 whole entry) above, with E760D counted along it

Structure (SMILES): O=C(C1=Cc2ccccc2S1(=O)=O)N1CCN(Cc2cc(F)c(F)cc2F)CC1
- Activity (Mus musculus [1]): Active
- Activity (A549 [2]): 50%
- Activity (NIH3T3 [3]): Active
- Activity [4]: Non-Toxic
- Activity (NIH3T3 [5]): Active
- Activity (Mus musculus [6]): Active
- Activity (A549 [7]): Dose-Dependent Effect
- Activity (Mus musculus [8]): 2.84%
- Activity (Mus musculus [9]): Active
- inhibition (A549 [10]): Active
- inhibition (A549 [11]): Active
- Activity (Mus musculus [12]): Active
- Activity (Mus musculus [13]): Active
- Activity (Mus musculus [14]): 6.93%
- Activity (Mus musculus [15]): 10.45%
- Activity (Mus musculus [16]): Active
- pIC50 (NIH3T3 [17]): 6.33
- Activity (A549 [18]): Active
- Activity [19]: Non-Toxic
- inhibition (NIH3T3 [20]): Dose-Dependent Effect
- Activity (NIH3T3 [21]): Active
- Activity (Mus musculus [22]): Active
- Activity (NIH3T3 [23]): Dose-Dependent Effect
- Activity (Mus musculus [24]): Active
- Activity [25]: Non-Toxic
- Activity (Mus musculus [26]): 0.65%
- Activity (Mus musculus [27]): Active
- Activity [28]: Non-Toxic
- inhibition (A549 [29]): Active
- Activity (NIH3T3 [30]): Active
- Activity [31]: Active
- inhibition (A549 [32]): Active
- Activity (Mus musculus [33]): Active
- inhibition (A549 [34]): Active
- Activity (Mus musculus [35]): 9.28%
- Activity [36]: Active
- Activity (Mus musculus [37]): 12.37%
